According to ChEMBL document CHEMBL1152339, “Use of the in vivo hollow fiber assay in natural products anticancer drug discovery” (J Nat Prod, 2009):

How the values were obtained:
Type in all cases: functional
KB [1] = assay: Growth inhibition of human KB cells xenografted in NCr nu/nu mouse at 6.25 to 25 mg/kg, ip once daily administered from day 3 to 6 after implantation measured on day 7 by MTT-based hollow-fiber test; settings: route intraperitoneal
KB [2] = assay: Growth inhibition of human KB cells xenografted in NCr nu/nu mouse at 6.25 to 25 mg/kg, sc once daily administered from day 3 to 6 after implantation measured on day 7 by MTT-based hollow-fiber test; settings: route subcutaneous
LNCaP [3] = assay: Growth inhibition of human LNCAP cells xenografted in NCr nu/nu mouse at 6.25 to 25 mg/kg, ip once daily administered from day 3 to 6 after implantation measured on day 7 by MTT-based hollow-fiber test; settings: route intraperitoneal
LNCaP [4] = assay: Growth inhibition of human LNCAP cells xenografted in NCr nu/nu mouse at 6.25 to 25 mg/kg, sc once daily administered from day 3 to 6 after implantation measured on day 7 by MTT-based hollow-fiber test; settings: route subcutaneous
Col2 [5] = assay: Growth inhibition of human Col2 cells xenografted in NCr nu/nu mouse at 6.25 to 25 mg/kg, ip once daily administered from day 3 to 6 after implantation measured on day 7 by MTT-based hollow-fiber test; settings: route intraperitoneal
Col2 [6] = assay: Growth inhibition of human Col2 cells xenografted in NCr nu/nu mouse at 6.25 to 25 mg/kg, sc once daily administered from day 3 to 6 after implantation measured on day 7 by MTT-based hollow-fiber test; settings: route subcutaneous
LNCaP [7] = assay: Growth inhibition of human LNCAP cells xenografted in ip dosed NCr nu/nu mouse administered once daily from day 3 to 6 after implantation measured on day 7 by MTT-based hollow-fiber test
Col2 [8] = assay: Growth inhibition of human Col2 cells xenografted in ip dosed NCr nu/nu mouse administered once daily from day 3 to 6 after implantation measured on day 7 by MTT-based hollow-fiber test
SW626 [9] = assay: Growth inhibition of human SW626 cells xenografted in ip dosed NCr nu/nu mouse administered once daily from day 3 to 6 after implantation measured on day 7 by MTT-based hollow-fiber test
KB [10] = assay: Growth inhibition of human KB cells xenografted in NCr nu/nu mouse at 3.75 to 30 mg/kg, ip once daily administered from day 3 to 6 after implantation measured on day 7 by MTT-based hollow-fiber test; settings: route intraperitoneal
KB [11] = assay: Growth inhibition of human KB cells xenografted in NCr nu/nu mouse at 3.75 to 30 mg/kg, sc once daily administered from day 3 to 6 after implantation measured on day 7 by MTT-based hollow-fiber test; settings: route subcutaneous
SW626 [12] = assay: Growth inhibition of human SW626 cells xenografted in NCr nu/nu mouse at 3.75 to 30 mg/kg, ip once daily administered from day 3 to 6 after implantation measured on day 7 by MTT-based hollow-fiber test; settings: dose mg/kg 3-6; route intraperitoneal
SW626 [13] = assay: Growth inhibition of human SW626 cells xenografted in NCr nu/nu mouse at 3.75 to 30 mg/kg, sc once daily administered from day 3 to 6 after implantation measured on day 7 by MTT-based hollow-fiber test; settings: dose mg/kg 3-6; route subcutaneous

| SMILES | growth inhibition (GI) (KB [1]) | growth inhibition (GI) (KB [2]) | growth inhibition (GI) (LNCaP [3]) | growth inhibition (GI) (LNCaP [4]) | growth inhibition (GI) (Col2 [5]) | growth inhibition (GI) (Col2 [6]) | ED50 (LNCaP [7]) | ED50 (Col2 [8]) | ED50 (SW626 [9]) | growth inhibition (GI) (KB [10]) | growth inhibition (GI) (KB [11]) | growth inhibition (GI) (SW626 [12]) | growth inhibition (GI) (SW626 [13]) |
| --- | --- | --- | --- | --- | --- | --- | --- | --- | --- | --- | --- | --- | --- |
| CC(=O)O[C@H]1O[C@H]([C@@H]2c3cccc(O)c3C(=O)c3c(O)cc(C)cc32)[C@H](O)[C@@H](OC(=O)C=C(C)C)[C@H]1O [ALVARADOIN G] | 79% | 13% | 52% | 24% | 84% | 0% | 290 nM | 1300 nM | – | – | – | – | – |
| CC(=O)O[C@H]1C(=O)[C@@]2(C)[C@H]([C@H](OC(=O)c3ccccc3)[C@]3(O)C[C@H](OC(=O)[C@H](O)[C@@H](NC(=O)c4ccccc4)c4ccccc4)C(C)=C1C3(C)C)[C@]1(OC(C)=O)CO[C@@H]1C[C@@H]2O [PACLITAXEL] | – | – | – | – | – | – | – | – | 0.012 nM | 70% | 20% | 98% | 0% |
